In brackets after ≈: the same amount, converted by molar mass. Like-named read-outs stand apart in the source and are kept apart here.
What was measured:
[1] = target: T1, MSPa (malate synthase G from P. aeruginosa) (Pseudomonas aeruginosa, UniProt Q9I636); assay: Inhibition of purified MSPa enzymatic activity; assay type: biochemical; conditions: for inhibition at 75 µM: 75 µM compound, read-out: Enzyme Inhibition (%) at 75 µM MSPa
T1 construct: made in house
Description: (§1) The enzymatic activity of purified ICLPa and MSPa was assayed essentially as previously described. Compounds were added to the reaction mixtures (minus substrates) and incubated for 5 min at 37 °C. The enzyme concentration in the reaction mixtures was 170 nM for ICL and 25 nM for MS (based on the concentration of the monomer in each case). […] The reactions were initiated by the addition of pH-adjusted substrates, and the initial rates were recorded as A324 nm (for ICLPa) and A412 nm (for MSPa) using a Biospectrometer (Eppendorf, Stevenage, UK). Substrate turnover was calculated from the molar extinction coefficient of the assay products: Glyoxylate-phenylhydrazone (16,800/M/cm) for ICLPa and 2-nitro-5-thiobenzoic acid (14,150/M/cm) for MSPa.
(§2) All data fitting was performed with GraphPad Prism version 7.04 (GraphPad Software, Inc., La Jolla, CA, USA). The solid lines are the result of fitting the data to the equations denoted in relevant experimental sections. IC50 values were determined by a nonlinear fit using the equation for sigmoidal dose-response with variable slope. In all graphs, unless otherwise stated, the data points are the mean of experimental triplicates, and all error bars correspond to ± standard deviation.

[2] = target: T2, ICLPa (isocitrate lyase from P. aeruginosa) (Pseudomonas aeruginosa, UniProt Q9I0K4); assay: Inhibition of purified ICLPa enzymatic activity; assay type: biochemical; conditions: for IC50: purified enzyme, 170 nM ICL
T2 construct: made in house
T2 sequence (Q9I0K4 1-531): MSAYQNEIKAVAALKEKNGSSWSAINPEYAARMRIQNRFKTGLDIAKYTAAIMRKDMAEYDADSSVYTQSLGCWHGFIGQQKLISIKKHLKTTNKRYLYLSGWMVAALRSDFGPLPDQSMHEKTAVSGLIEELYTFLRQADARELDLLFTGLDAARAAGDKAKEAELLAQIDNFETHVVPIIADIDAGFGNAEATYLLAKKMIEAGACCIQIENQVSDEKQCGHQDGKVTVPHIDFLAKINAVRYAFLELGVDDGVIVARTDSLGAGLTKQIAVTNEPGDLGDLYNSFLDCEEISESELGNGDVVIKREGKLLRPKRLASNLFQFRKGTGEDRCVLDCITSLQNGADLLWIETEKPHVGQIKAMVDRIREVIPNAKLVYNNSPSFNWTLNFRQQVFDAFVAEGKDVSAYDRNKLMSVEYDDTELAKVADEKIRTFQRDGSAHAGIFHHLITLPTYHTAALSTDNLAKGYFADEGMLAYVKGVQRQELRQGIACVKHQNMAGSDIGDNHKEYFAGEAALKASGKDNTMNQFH
Description: as §1, §2

[3] = tested on: P. aeruginosa PAO1; assay: Antibacterial growth assay (OD600, 18 h) in LB or M9-acetate; assay type: cell-based; conditions: Pseudomonas aeruginosa; for inhibition at 200 µM: final optical density; for MIC: PAO1, MIC = lowest concentration inhibiting >75% of growth
Description: Growth assays were carried out using clear, U-bottom, sterile 96-well plates (Thermo Fisher Scientific, Bishop’s Stortford, UK). P. aeruginosa PAO1 overnight cultures were diluted to a starting OD600 of 0.05 in LB medium or M9 medium supplemented with 0.5% acetate. The test compounds were added to the indicated final concentrations, and the plates were covered with gas-permeable adhesive seals (Scientific Laboratory Supplies, Nottingham, UK). Assay controls included 1% DMSO, a positive antibiotic control (ciprofloxacin, 1 µg/mL), and medium-only wells as a control for background absorbance. […]

[4] = 75 µM compound, read-out: Enzyme Inhibition (%) at 75 µM ICLPa
[5] = PAO1, LB medium, read-out: PAO1 Growth Inhibition (%) at 200 µM LB
[6] = PAO1, M9-acetate medium, read-out: PAO1 Growth Inhibition (%) at 200 µM M9ac
[7] = M9 medium with 0.5% acetate, read-out: MIC M9ac

T1 sequence (Q9I636 whole entry): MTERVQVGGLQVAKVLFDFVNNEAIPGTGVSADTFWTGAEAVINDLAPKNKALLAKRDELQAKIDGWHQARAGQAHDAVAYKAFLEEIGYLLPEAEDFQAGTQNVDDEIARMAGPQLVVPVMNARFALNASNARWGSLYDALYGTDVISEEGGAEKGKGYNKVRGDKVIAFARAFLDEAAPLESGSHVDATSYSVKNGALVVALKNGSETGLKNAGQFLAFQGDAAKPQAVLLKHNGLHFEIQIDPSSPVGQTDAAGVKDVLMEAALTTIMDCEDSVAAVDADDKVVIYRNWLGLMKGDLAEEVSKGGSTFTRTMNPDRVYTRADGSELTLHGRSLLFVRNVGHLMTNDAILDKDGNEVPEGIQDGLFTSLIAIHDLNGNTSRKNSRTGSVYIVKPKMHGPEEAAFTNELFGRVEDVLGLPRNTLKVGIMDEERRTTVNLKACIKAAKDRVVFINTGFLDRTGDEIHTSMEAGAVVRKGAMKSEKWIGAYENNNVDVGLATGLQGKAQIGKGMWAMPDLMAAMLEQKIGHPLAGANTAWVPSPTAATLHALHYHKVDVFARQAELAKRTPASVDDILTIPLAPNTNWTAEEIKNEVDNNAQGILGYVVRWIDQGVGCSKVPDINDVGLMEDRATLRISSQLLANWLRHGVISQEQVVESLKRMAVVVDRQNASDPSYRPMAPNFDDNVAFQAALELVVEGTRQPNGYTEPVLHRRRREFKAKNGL

Which results are given for CC(C)(C)OC(=O)/N=C(\NC(=O)OC(C)(C)C)Nc1cc(C(F)(F)F)ccn1 [SB022]?
IC50 [1]: > 75 µM; inhibition at 75 µM [1]: 0%; inhibition at 75 µM [2, 4]: 4.3%; IC50 [2]: > 75 µM; inhibition at 200 µM [3, 5]: 0%; inhibition at 200 µM [3, 6]: 7%; MIC ([3]; LB medium, read-out: MIC LB): > 200 µM; MIC [3, 7]: > 200 µM

How did the IC50 [1] turn out when CC(C)(C)OC(=O)/N=C(\NC(=O)OC(C)(C)C)Nc1cc(F)ccn1 [SB026] was run?
Its IC50 is 59.3 µM.

And the inhibition at 75 µM [1]?
Its inhibition at 75 µM is 55.1%.

What about the inhibition at 75 µM [2, 4] of the same compound?
The inhibition at 75 µM was 62%.

And the IC50 [2]?
Its IC50 is 54.5 µM.

And the inhibition at 200 µM [3, 5]?
Its inhibition at 200 µM is about 23%.

And the inhibition at 200 µM [3, 6]?
The inhibition at 200 µM was 72%.

And the MIC ([3]; LB medium, read-out: MIC LB)?
Its MIC is over 200 µM.

And the MIC [3, 7]?
Its MIC is 70.9 µM (≈ 25.1 µg/mL).

With C=C(CC(=O)O)C(=O)O [ITA, itaconate, reference compound] as the compound, how does the “Enzyme Inhibition (%) at 75 µM ICLPa” value ([2]; 75 µM compound) read?
Its value is 72.6%.

What about the IC50 [2] of the same compound?
The IC50 was 24.9 µM.

What about the inhibition at 75 µM ([2]; read-out: Enzyme Inhibition (%) at 75 µM ICLPa, 75 µM compound) of the same compound?
Its inhibition at 75 µM is about 70%.

Which IC50 [1] does the source give for COC(=O)c1ccnc(N/C(=N/C(=O)OC(C)(C)C)NC(=O)OC(C)(C)C)c1 [SB029] here?
The IC50 was over 75 µM.

And the inhibition at 75 µM [1]?
Its inhibition at 75 µM is 0%.

What about the inhibition at 75 µM [2, 4] of the same compound?
Its inhibition at 75 µM is 55.9%.

And the IC50 [2]?
Its IC50 is 64.7 µM.

What about the inhibition at 200 µM [3, 5] of the same compound?
Its inhibition at 200 µM is 6%.

What about the inhibition at 200 µM [3, 6] of the same compound?
Its inhibition at 200 µM is 45%.

What about the MIC ([3]; LB medium, read-out: MIC LB) of the same compound?
Its MIC is over 200 µM.

And the MIC [3, 7]?
The MIC was over 78.9 µM.

How did the IC50 [1] turn out when CC(C)(C)OC(=O)/N=C(\NC(=O)OC(C)(C)C)Nc1cc(Br)ccn1 [SB001] was run?
The IC50 was over 75 µM.

And the inhibition at 75 µM [1]?
Its inhibition at 75 µM is 16.2%.

And the inhibition at 75 µM [2, 4]?
Its inhibition at 75 µM is 6.1%.

And the IC50 [2]?
Its IC50 is over 75 µM.

And the inhibition at 200 µM [3, 5]?
Its inhibition at 200 µM is 0%.

What about the inhibition at 200 µM [3, 6] of the same compound?
Its inhibition at 200 µM is 48%.

What about the MIC ([3]; LB medium, read-out: MIC LB) of the same compound?
Its MIC is over 200 µM.

What about the MIC [3, 7] of the same compound?
The MIC was over 200 µM.

CC(C)(C)OC(=O)/N=C(\NC(=O)OC(C)(C)C)Nc1ccnc(Cl)c1 [SB032] was tested. Which IC50 [1] did it give?
Its IC50 is 70.6 µM.

And the inhibition at 75 µM [1]?
The inhibition at 75 µM was 48.7%.

And the inhibition at 75 µM [2, 4]?
The inhibition at 75 µM was 43.8%.

And the IC50 [2]?
The IC50 was 91.8 µM.

Source: paper PMC7177833, “2-Aminopyridine Analogs Inhibit Both Enzymes of the Glyoxylate Shunt in Pseudomonas aeruginosa” (International Journal of Molecular Sciences, 2020)
